Measurements as given in PubChem BioAssay (NCI).
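Growth conditions: 96-well plates. Treatment: test compound, 48 hours, 5 concentrations. Analysis: linear interpolation between bracketing concentrations; unreached endpoints set to highest concentration. Here, GI50 denotes the concentration required for 50% inhibition of growth. Definition used: TGI = concentration required for complete inhibition of growth.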

Experiments:
Experiment in all cases: NCI anticancer screen, dose series, 48 h
[1] = system: 786-0 renal
[2] = system: A498 renal
[3] = system: A549 NSCLC
[4] = system: ACHN renal
[5] = system: BT-549 breast
[6] = system: CAKI-1 renal
[7] = system: COLO 205 colon
[8] = system: DU-145 prostate
[9] = system: EKVX NSCLC
[10] = system: HCC-2998 colon
[11] = system: HCT-116 colon
[12] = system: HCT-15 colon
[13] = system: HL-60(TB) leukemia
[14] = system: HOP-62 NSCLC
[15] = system: HOP-92 NSCLC
[16] = system: HS 578T breast
[17] = system: HT29 colon
[18] = system: IGROV1 ovarian
[19] = system: K-562 leukemia
[20] = system: KM12 colon
[21] = system: LOX IMVI melanoma
[22] = system: M14 melanoma
[23] = system: MALME-3M melanoma
[24] = system: MCF7 breast
[25] = system: MDA-MB-231 breast
[26] = system: MDA-MB-435
[27] = system: MOLT-4 leukemia
[28] = system: NCI-H226 lung
[29] = system: NCI-H23 lung
[30] = system: NCI-H460 lung
[31] = system: NCI-H522 lung
[32] = system: NCI/ADR-RES ovarian
[33] = system: OVCAR-3 ovarian
[34] = system: OVCAR-4 ovarian
[35] = system: OVCAR-5 ovarian
[36] = system: OVCAR-8 ovarian
[37] = system: PC-3 prostate
[38] = system: RPMI-8226 leukemia
[39] = system: RXF 393 renal
[40] = system: SF-268 CNS
[41] = system: SF-295 CNS
[42] = system: SF-539 CNS
[43] = system: SK-MEL-2 melanoma
[44] = system: SK-MEL-28 melanoma
[45] = system: SK-MEL-5 melanoma
[46] = system: SK-OV-3 ovarian
[47] = system: SN12C renal
[48] = system: SNB-19 CNS
[49] = system: SNB-75 CNS
[50] = system: SW-620 colon
[51] = system: T-47D breast
[52] = system: TK-10 renal
[53] = system: U251 CNS
[54] = system: UACC-257 melanoma
[55] = system: UACC-62 melanoma
[56] = system: UO-31 renal

Which GI50 [1] does the source give for `CCCCCCCCCCCCOC1C(CNC(=O)C2OC3OC(C)(C)OC3C2NC(=O)Nc2ccc(CC(=O)NC(Cc3ccccc3)C(=O)O)cc2)OC2OC(C)(C)OC21` (configuration not stated) here?
The GI50 was > 25 µM.

And the TGI [1]?
The TGI was > 25 µM.

What about the GI50 [2] of the same compound?
Its GI50 is > 25 µM.

And the TGI [2]?
Its TGI is > 25 µM.

And the GI50 [3]?
The GI50 was > 25 µM.

And the TGI [3]?
Its TGI is > 25 µM.

What about the GI50 [4] of the same compound?
Its GI50 is > 25 µM.

What about the TGI [4] of the same compound?
The TGI was > 25 µM.

And the GI50 [5]?
The GI50 was 22.7 µM.

And the TGI [5]?
Its TGI is > 25 µM.

And the GI50 [6]?
The GI50 was > 25 µM.

What about the TGI [6] of the same compound?
Its TGI is > 25 µM.

What about the GI50 [7] of the same compound?
The GI50 was > 25 µM.

What about the TGI [7] of the same compound?
The TGI was > 25 µM.

And the GI50 [8]?
Its GI50 is > 25 µM.

And the TGI [8]?
The TGI was > 25 µM.

And the GI50 [9]?
Its GI50 is > 25 µM.

And the TGI [9]?
Its TGI is > 25 µM.

And the GI50 [10]?
Its GI50 is > 25 µM.

What about the TGI [10] of the same compound?
The TGI was > 25 µM.

What about the GI50 [11] of the same compound?
Its GI50 is > 25 µM.

And the TGI [11]?
The TGI was > 25 µM.

And the GI50 [12]?
Its GI50 is > 25 µM.

And the TGI [12]?
Its TGI is > 25 µM.

What about the GI50 [13] of the same compound?
Its GI50 is > 25 µM.

And the TGI [13]?
The TGI was > 25 µM.

And the GI50 [14]?
Its GI50 is > 25 µM.

And the TGI [14]?
The TGI was > 25 µM.

What about the GI50 [15] of the same compound?
The GI50 was > 25 µM.

And the TGI [15]?
Its TGI is > 25 µM.

And the GI50 [16]?
Its GI50 is 9.2 µM.

And the TGI [16]?
Its TGI is > 25 µM.

And the GI50 [17]?
The GI50 was > 25 µM.

What about the TGI [17] of the same compound?
The TGI was > 25 µM.

And the GI50 [18]?
Its GI50 is 22.5 µM.

And the TGI [18]?
Its TGI is > 25 µM.

And the GI50 [19]?
Its GI50 is > 25 µM.

What about the TGI [19] of the same compound?
Its TGI is > 25 µM.

What about the GI50 [20] of the same compound?
Its GI50 is > 25 µM.

And the TGI [20]?
The TGI was > 25 µM.

And the GI50 [21]?
The GI50 was > 25 µM.

What about the TGI [21] of the same compound?
The TGI was > 25 µM.

What about the GI50 [22] of the same compound?
The GI50 was > 25 µM.

And the TGI [22]?
Its TGI is > 25 µM.

What about the GI50 [23] of the same compound?
Its GI50 is > 25 µM.

And the TGI [23]?
The TGI was > 25 µM.

What about the GI50 [24] of the same compound?
Its GI50 is > 25 µM.

And the TGI [24]?
The TGI was > 25 µM.

What about the GI50 [25] of the same compound?
Its GI50 is > 25 µM.

What about the TGI [25] of the same compound?
The TGI was > 25 µM.

And the GI50 [26]?
Its GI50 is > 25 µM.

What about the TGI [26] of the same compound?
Its TGI is > 25 µM.

And the GI50 [27]?
The GI50 was > 25 µM.

And the TGI [27]?
The TGI was > 25 µM.

What about the GI50 [28] of the same compound?
The GI50 was > 25 µM.

And the TGI [28]?
Its TGI is > 25 µM.

And the GI50 [29]?
The GI50 was > 25 µM.

And the TGI [29]?
The TGI was > 25 µM.

And the GI50 [30]?
The GI50 was > 25 µM.

What about the TGI [30] of the same compound?
Its TGI is > 25 µM.

What about the GI50 [31] of the same compound?
Its GI50 is > 25 µM.

And the TGI [31]?
Its TGI is > 25 µM.

What about the GI50 [32] of the same compound?
The GI50 was > 25 µM.

What about the TGI [32] of the same compound?
The TGI was > 25 µM.

What about the GI50 [33] of the same compound?
The GI50 was > 25 µM.

And the TGI [33]?
The TGI was > 25 µM.

What about the GI50 [34] of the same compound?
Its GI50 is > 25 µM.

What about the TGI [34] of the same compound?
The TGI was > 25 µM.

And the GI50 [35]?
Its GI50 is > 25 µM.

And the TGI [35]?
Its TGI is > 25 µM.

What about the GI50 [36] of the same compound?
Its GI50 is > 25 µM.

What about the TGI [36] of the same compound?
Its TGI is > 25 µM.

What about the GI50 [37] of the same compound?
Its GI50 is > 25 µM.

And the TGI [37]?
The TGI was > 25 µM.

And the GI50 [38]?
The GI50 was 15.9 µM.

What about the TGI [38] of the same compound?
Its TGI is > 25 µM.

And the GI50 [39]?
The GI50 was 13.3 µM.

And the TGI [39]?
The TGI was > 25 µM.

And the GI50 [40]?
The GI50 was > 25 µM.

And the TGI [40]?
Its TGI is > 25 µM.

And the GI50 [41]?
Its GI50 is > 25 µM.

What about the TGI [41] of the same compound?
Its TGI is > 25 µM.

What about the GI50 [42] of the same compound?
The GI50 was > 25 µM.

And the TGI [42]?
The TGI was > 25 µM.

What about the GI50 [43] of the same compound?
The GI50 was > 25 µM.

And the TGI [43]?
The TGI was > 25 µM.

What about the GI50 [44] of the same compound?
The GI50 was > 25 µM.

And the TGI [44]?
Its TGI is > 25 µM.

What about the GI50 [45] of the same compound?
Its GI50 is > 25 µM.

And the TGI [45]?
Its TGI is > 25 µM.

What about the GI50 [46] of the same compound?
The GI50 was > 25 µM.

And the TGI [46]?
The TGI was > 25 µM.

What about the GI50 [47] of the same compound?
The GI50 was > 25 µM.

And the TGI [47]?
The TGI was > 25 µM.

What about the GI50 [48] of the same compound?
The GI50 was > 25 µM.

What about the TGI [48] of the same compound?
Its TGI is > 25 µM.

And the GI50 [49]?
The GI50 was > 25 µM.

What about the TGI [49] of the same compound?
The TGI was > 25 µM.

And the GI50 [50]?
Its GI50 is > 25 µM.

And the TGI [50]?
The TGI was > 25 µM.

And the GI50 [51]?
The GI50 was 16.3 µM.

And the TGI [51]?
Its TGI is > 25 µM.

And the GI50 [52]?
Its GI50 is > 25 µM.

What about the TGI [52] of the same compound?
The TGI was > 25 µM.

What about the GI50 [53] of the same compound?
The GI50 was > 25 µM.

And the TGI [53]?
Its TGI is > 25 µM.

And the GI50 [54]?
Its GI50 is > 25 µM.

What about the TGI [54] of the same compound?
The TGI was > 25 µM.

What about the GI50 [55] of the same compound?
Its GI50 is > 25 µM.

What about the TGI [55] of the same compound?
Its TGI is > 25 µM.

What about the GI50 [56] of the same compound?
The GI50 was > 25 µM.

And the TGI [56]?
The TGI was > 25 µM.
